Test results published in patent US9074014B2 (Ipsen Pharma S.A.S., priority 2008, dated 2015).
*1 amine or outer side, *2 acyl side, *3 side chain or, on linkers, in order; H or OH if unused. Where no end group is shown, it is not given here. [ ]: non-standard residue; d: D form. The star is where a group is joined. Desaminotyrosyl = O=C(CCc1ccc(O)cc1)*; NMeY = CN[C@@H](Cc1ccc(O)cc1)C(=O)O; X2 = O=C([C@@H]1CC(O)CN1[*:1])[*:2]; Tic = O=C(O)[C@@H]1Cc2ccccc2CN1; ΔPro = O=C(O)[C@@H]1C=CCN1; Pip = O=C(O)[C@@H]1CCCCN1; Ac6c = NC1(C(=O)O)CCCCC1; Nle = CCCC[C@H](N)C(=O)O; X1 = CCCN1C(=O)CC(*)C1=O; Ac5c = NC1(C(=O)O)CCCC1; Aib = CC(C)(N)C(=O)O

Key:
[1] = Human plasma half-life assay; type: in vitro ADME
[2] = Rat plasma half-life assay; type: in vitro ADME; set-up: half-life: dose or concentration left out as unconfirmed; conditions: for half-life at 0.1 mg/ml: read-out: Rat Plasma T½ (converted)
[3] = human plasma, 37° C., LC-MS, read-out: Human Plasma T½ (converted)

Substance	half-life at 0.1 mg/ml [1, 3] [h]	half-life at 0.1 mg/ml ([2]; rat plasma, 37° C., LC-MS) [h]	also measured
Desaminotyrosyl-AEGTFISDYSI[Aib]MDKIHQQDFVNWLLAQKGKKNDWKHNITQ-OH [Example 101, (4Hppa^1, Aib^13)hGIP(1-42)-OH]	47.5	13.4	
H-YAPGTFISDYSIAMDKIHQQDFVNWLLAQKGKKNDWKHNITQ-OH [[Pro^3]hGIP(1-42)-OH, reference compound]			half-life at 0.1 mg/ml ([1]; human, plasma, same experimental conditions as Table 2, read-out: human plasma half-life (converted)): 10.8 h; half-life ([2]; rat, plasma, same experimental conditions as Table 2, read-out: rat plasma half-life (converted)): 0.8 h
H-YA[X2]GTFISDYSIA[Ac6c]DKIHQQDFVNWLLAQKGKKNDWKHNITQ-OH [Example 84, (4Hyp^3, A6c^14)hGIP(1-42)-OH]	3.3	1.9	
H-YA[X2]GTFISDY[Ac5c]IAMDKIHQQDFVNWLLAQKGKKNDWKHNITQ-OH [Example 87, (4Hyp^3, A5c^11)hGIP(1-42)-OH]	38.7	3.4	
H-[NMeY][Aib]EGTFISDY[Ac5c]IA[Nle]DKIHQQDFVNWLLAQKGKKNDWKHNITQ-OH [Example 113, (NMe-Tyr^1, Aib^2, A5c^11, Nle^14)hGIP(1-42)-OH]	61.9	27	
YAPGTFISDYSIA[Ac6c]DKIHQQDFVNWLLAQKGKKNDWKHNITQ-OH [Example 91, (Pro^3, A6c^14)hGIP(1-42)-OH]	13.4	1	
YAPGTFISDYSI[Aib]MDKIHQQDFVNWLLAQKGKKNDWKHNITQ [Example 75, (Pro^3, Aib^13)hGIP(1-42)-OH]	26.1	1.9	
YAPGTFISDYSI[Aib][Nle]DKIHQQDFVNWLLAQKGKKNDWKHNITQ-OH [Example 62, (Pro^3, Aib^13, Nle^14)hGIP(1-42)-OH]	11.4	1.4	
YAPGTFISDY[Ac5c]IA[Ac6c]DKIHQQDFVNWLLAQKGKKNDWKHNITQ-OH [Example 102, (Pro^3, A5c^11, A6c^14)hGIP(1-42)-OH]	54.1	1.7	
YA[Pip]GTFISDYSI[Aib]MDKIHQQDFVNWLLAQKGKKNDWKHNITQ [Example 65, (hPro^3, Aib^13)hGIP(1-42)-OH]	14.3	1.5	
YA[Pip]GTFISDYSI[Aib][Nle]DKIHQQDFVNWLLAQKGKKNDWKHNITQ-OH [Example 63, (hPro^3, Aib^13, Nle^14)hGIP(1-42)-OH]	14.2	1.4	
YA[Tic]GTFISDYSI[Aib]MDKIHQQDFVNWLLAQKGKKNDWKHNITQ [Example 66, (Tic^3, Aib^13)hGIP(1-42)-OH]	19.1	8.8	
YA[Tic]GTFISDY[Ac5c]IAMDKIHQQDFVNWLLAQKGKKNDWKHNITQ-OH [Example 82, (Tic^3, A5c^11)hGIP(1-42)-OH]	9.7	10.2	
YA[Tic]GTFISDY[Ac5c]IA[Ac6c]DKIHQQDFVNWLLAQKGKKNDWKHNITQ-OH [Example 89, (Tic^3, A5c^11, A6c^14)hGIP(1-42)-OH]	> 48	11.8	
YA[X2]GTFISDYSI[Aib]MDKIHQQDFVNWLLAQKGKKNDWKHNITQ [Example 67, (4Hyp^3, Aib^13)hGIP(1-42)-OH]	> 33	1.6	
YA[ΔPro]GTFISDYSI[Aib][Nle]DKIHQQDFVNWLLAQKGKKNDWKHNITQ-OH [Example 64, (Dhp^3, Aib^13, Nle^14)hGIP(1-42)-OH]			Human Plasma T½ ([1]; human plasma, 37° C., LC-MS): 41.3 h; Rat Plasma T½ ([2]; rat plasma, 37° C., LC-MS): 47.5 h
YGEGTFISDY[Ac5c]IAMDKIHQQDFVNWLLAQKGKKNDWKHNITQH-OH [Example 117, (Gly^2, A5c^11, His^43)hGIP(1-43)-OH]	25.2	10.5	
Y[Ac5c]EGTF[Ac5c]SDYSIA[Ac6c]DKIHQQDFVNWLLAQKGKKNDWKHNITQ-OH [Example 56, (A5c^2,7, A6c^14)hGIP(1-42)-OH]	16	9.2	
Y[Aib]EGTFISDYS[Ac5c]AMDKIHQQDFVNWLLAQKGKKNDWKHNITQ-OH [Example 7, (Aib^2, A5c^12)hGIP(1-42)-OH]	37.1	5.3	
Y[Aib]EGTFISDYS[Aib]AMDKIHQQDFVNWLLAQKGKKNDWKHNITQ-OH [Example 8, (Aib^2, 12)hGIP(1-42)-OH]	> 48	4.5	
Y[Aib]EGTFISDY[Ac5c]IAMDKIHQQDFVNWLLAQKGKKNDWKHNITQ-OH [Example 53, (Aib^2, A5c^11)hGIP(1-42)-OH]	33.3	51.7	
Y[Aib]EGTFISDY[Ac5c]IA[Ac6c]DKIHQQDFVNWLLAQKGKKNDWKHNITQ-OH [Example 61, (Aib^2, A5c^11, A6c^14)hGIP(1-42)-OH]	> 48	45.3	
Y[Aib]EGTFISDY[Ac5c]IA[Nle]DKIHQQDFVNWLLAQKGKKNDWKHNITQ-OH [Example 54, (Aib^2, A5c^11, Nle^14)hGIP(1-42)-OH]	> 56	44.1	

Substance	half-life at 0.1 mg/ml [1, 3] [h]	half-life at 0.1 mg/ml ([2]; rat plasma, 37° C., LC-MS) [h]	also measured
Y[Aib]EGTFISDY[Aib]IAMDKIHQQDFVNWLLAQKGKKNDWKHNITQ-OH [Example 1, (Aib^2, 11)hGIP(1-42)-OH]	> 48	3.9	
Y[Aib]EGTFISDY[Aib]IA[Nle]DKIHQQDFVNWLLAQKGKKNDWKHNITQ-OH [Example 45, (Aib^2, 11, Nle^14)hGIP(1-42)-OH]	18.2	11.6	
Y[Aib]EGTFIS[Aib]YSIAMDKIHQQDFVNWLLAQKGKKNDWKHNITQ-OH [Example 2, (Aib^2, 9)hGIP(1-42)-OH]	9.4	5.6	
Y[Aib]EGTFI[Aib]DYSIAMDKIHQQDFVNWLLAQKGKKNDWKHNITQ-OH [Example 9, (Aib^2, 8)hGIP(1-42)-OH]	> 48	9.2	
Y[Aib]EGTF[Ac5c]SDYSIAMDKIHQQDFVNWLLAQKGKKNDWKHNITQ-OH [Example 6, (Aib^2, A5c^7)hGIP(1-42)-OH]	> 48	8.6	
Y[Aib]EGTF[Ac5c]SDYSIA[Ac5c]DKIHQQDFVNWLLAQKGKKNDWKHNITQ-OH [Example 59, (Aib^2, A5c^7, 14)hGIP(1-42)-OH]	24	13.1	
Y[Aib]EGTF[Ac5c]SDYSIA[Ac6c]DKIHQQDFVNWLLAQKGKKNDWKHNITQ-OH [Example 44, (Aib^2, A5c^7, A6c^14)hGIP(1-42)-OH]	9.5	7.5	
Y[Aib]EGTF[Ac5c]SDYSIA[Nle]DKIHQQDFVNWLLAQKGKKNDWKHNITQ-OH [Example 58, (Aib^2, A5c^7, Nle^14)hGIP(1-42)-OH]	37.6	16.7	
Y[Aib]EGTF[Ac6c]SDYSIAMDKIHQQDFVNWLLAQKC(X1)KKNDWKHNITQ-OH [Example 90, [Aib^2, A6c^7, Cys(Psu)^31]hGIP(1-42)-OH]	11.3	4.8	
Y[Aib]EGTF[Ac6c]SDYSIAMDKIHQQDFVNWLLAQKGKKC(X1)DWKHNITQ-OH [Example 86, [Aib^2, A6c^7, Cys(Psu)^34]hGIP(1-42)-OH]	4.2	7	
Y[Aib]EGTF[Ac6c]SDYSIAMDKIHQQDFVNWLLAQKGKKNC(X1)WKHNITQ-OH [Example 85, [Aib^2, A6c^7, Cys(Psu)^35]hGIP(1-42)-OH]	7.3	3.5	
Y[Aib]EGTF[Ac6c]SDYSIAMDKIHQQDFVNWLLAQKGKKNDC(X1)KHNITQ-OH [Example 81, [Aib^2, A6c^7, Cys(Psu)^36]hGIP(1-42)-OH]	8.2	6.1	
Y[Aib]EGTF[Ac6c]SDYSIAMDKIHQQDFVNWLLAQKGKKNDWKC(X1)NITQ-OH [Example 80, [Aib^2, A6c^7, Cys(Psu)^38]hGIP(1-42)-OH]	> 54	5.5	
Y[Aib]EGTF[Ac6c]SDYSIAMDKIHQQDFVNWLLAQKGKKNDWKHNC(X1)TQ-OH [Example 78, [Aib^2, A6c^7, Cys(Psu)^40]hGIP(1-42)-OH]	10.1	11.2	
Y[Aib]EGTF[Ac6c]SDYSIAMDKIHQQDFVNWLLAQK[Aib]KKNDWKHNITQ-OH [Example 22, (Aib^2, 31, A6c^7)hGIP(1-42)-OH]	> 48	14.2	
Y[Aib]EGTF[Ac6c]SDYSIA[Nle]DKIHQQDFVNWLLAQKGKKNDWKHNITQ-OH [Example 55, (Aib^2, A6c^7, Nle^14)hGIP(1-42)-OH]	8.8	11.7	
Y[Aib]EGTF[Ac6c]SDYSIA[Nle]DKIHQQDFVNWLLAQKGKKNDWKHNI[Ac6c]Q-OH [Example 29, (Aib^2, A6c^7, 41, Nle^14)hGIP(1-42)-OH]	> 48	7.3	
Y[Aib]EGTF[Ac6c]SDYSIA[Nle]DKIHQQDFVNWLLAQKGKKNDWKHNI[Aib]Q-OH [Example 25, (Aib^2, 41, A6c^7, Nle^14)hGIP(1-42)-OH]	> 48	8.4	
Y[Aib]EGTF[Ac6c]SDYSIA[Nle]DKIHQQDFVNWLLAQKGKKNDWKHN[Ac6c]TQ-OH [Example 28, (Aib^2, A6c^7, 40, Nle^14)hGIP(1-42)-OH]	> 48	11.6	
Y[Aib]EGTF[Ac6c]SDYSIA[Nle]DKIHQQDFVNWLLAQK[Aib]KKNDWKHNITQ-OH [Example 24, (Aib^2, 31, A6c^7, Nle^14)hGIP(1-42)-OH]	> 48	24.8	
Y[Aib]EGTF[Ac6c]SDYSIA[Nle]DKIHQQDFVNWLL[Aib]QKGKKNDWKHNITQ-OH [Example 30, (Aib^2, 28, A6c^7, Nle^14)hGIP(1-42)-OH]	> 48	13.4	
Y[Aib]EGTF[Ac6c]SDYSIA[Nle]DKIHQQDFVNWL[Ac6c]AQKGKKNDWKHNITQ-OH [Example 27, (Aib^2, A6c^7, 27, Nle^14)hGIP(1-42)-OH]	> 48	9.3	
